Laboratory results from the NIST ThermoML archive (doi:10.1021/je034102r).
Numbers after ± are expanded uncertainties.

Assay: molar heat capacity at constant pressure
Details: 101.33 kPa, Liquid, heat bridge-scanning calorimeter

CCCCn1cc[n+](C)c1.F[P-](F)(F)(F)(F)F [1-butyl-3-methylimidazolium hexafluorophosphate]
Details | molar heat capacity at constant pressure [J/K/mol]
436.99 K | 483.11 ± 9.7
437.29 K | 483.68 ± 9.7
437.42 K | 483.96 ± 9.7
437.56 K | 484.53 ± 9.7
437.69 K | 484.82 ± 9.7
437.83 K | 485.38 ± 9.7
437.96 K | 485.1 ± 9.7
438.1 K | 485.1 ± 9.7
438.24 K | 484.53 ± 9.7
438.37 K | 483.96 ± 9.7
438.67 K | 484.53 ± 9.7
438.81 K | 484.53 ± 9.7
438.94 K | 484.82 ± 9.7
439.08 K | 485.1 ± 9.7
439.21 K | 484.82 ± 9.7
439.35 K | 484.82 ± 9.7
439.49 K | 484.82 ± 9.7
439.62 K | 485.38 ± 9.7
439.76 K | 485.95 ± 9.7
439.89 K | 485.67 ± 9.7
440.03 K | 485.95 ± 9.7
440.32 K | 485.1 ± 9.7
440.46 K | 484.82 ± 9.7
440.6 K | 484.82 ± 9.7
440.73 K | 484.82 ± 9.7
440.87 K | 484.82 ± 9.7
441 K | 484.82 ± 9.7
441.14 K | 485.1 ± 9.7
441.28 K | 484.82 ± 9.7
441.41 K | 484.53 ± 9.7
441.71 K | 484.82 ± 9.7
441.85 K | 485.1 ± 9.7
441.98 K | 485.1 ± 9.7
442.12 K | 485.1 ± 9.7
442.25 K | 485.67 ± 9.7
442.39 K | 486.52 ± 9.7
442.53 K | 486.52 ± 9.7
442.66 K | 485.95 ± 9.7
442.8 K | 485.95 ± 9.7
442.93 K | 486.24 ± 9.7
443.07 K | 486.24 ± 9.7
443.37 K | 485.95 ± 9.7
443.51 K | 485.95 ± 9.7
443.65 K | 485.95 ± 9.7
443.78 K | 485.95 ± 9.7
443.92 K | 486.24 ± 9.7
444.05 K | 485.95 ± 9.7
444.19 K | 486.24 ± 9.7
444.32 K | 485.95 ± 9.7
444.46 K | 486.52 ± 9.7
444.76 K | 485.95 ± 9.7
444.9 K | 485.95 ± 9.7
445.03 K | 485.95 ± 9.7
445.17 K | 486.24 ± 9.7
445.3 K | 486.8 ± 9.7
445.44 K | 486.52 ± 9.7
445.58 K | 487.37 ± 9.7
445.71 K | 487.37 ± 9.7
445.85 K | 486.8 ± 9.7
445.99 K | 487.09 ± 9.7
446.12 K | 486.52 ± 9.7
446.42 K | 487.09 ± 9.7
446.55 K | 487.09 ± 9.7
446.69 K | 487.09 ± 9.7
446.83 K | 487.37 ± 9.7
446.96 K | 487.94 ± 9.7
447.1 K | 487.66 ± 9.7
447.23 K | 487.66 ± 9.7
447.37 K | 487.37 ± 9.7
447.51 K | 487.09 ± 9.7
447.81 K | 489.08 ± 9.7
447.94 K | 489.65 ± 9.7
448.08 K | 489.36 ± 9.7
448.22 K | 488.51 ± 9.7
448.35 K | 488.23 ± 9.7
448.49 K | 487.94 ± 9.7
448.62 K | 487.94 ± 9.7
448.76 K | 488.23 ± 9.7
448.9 K | 487.94 ± 9.7
449.03 K | 487.66 ± 9.7
449.17 K | 487.94 ± 9.7
449.46 K | 487.94 ± 9.7
449.6 K | 487.94 ± 9.7
449.74 K | 488.79 ± 9.7
449.89 K | 489.08 ± 9.7
450.02 K | 489.36 ± 9.7
450.16 K | 489.08 ± 9.7
450.3 K | 488.51 ± 9.7
450.43 K | 488.51 ± 9.7
450.57 K | 488.23 ± 9.7
450.87 K | 488.51 ± 9.7
451 K | 489.08 ± 9.7
451.14 K | 489.08 ± 9.7
451.28 K | 488.79 ± 9.7
451.41 K | 488.51 ± 9.7
451.55 K | 488.51 ± 9.7
451.69 K | 488.51 ± 9.7
451.82 K | 489.08 ± 9.7
451.96 K | 489.36 ± 9.7
452.1 K | 489.36 ± 9.7
452.23 K | 489.08 ± 9.7
452.53 K | 489.08 ± 9.7
452.67 K | 488.79 ± 9.7
452.8 K | 489.65 ± 9.7
452.94 K | 490.5 ± 9.9
453.07 K | 491.07 ± 9.9
453.21 K | 490.5 ± 9.9
453.35 K | 490.21 ± 9.9
453.48 K | 489.93 ± 9.7
453.62 K | 489.65 ± 9.7
453.92 K | 489.65 ± 9.7
454.06 K | 489.93 ± 9.7
454.2 K | 489.93 ± 9.7
454.33 K | 489.93 ± 9.7
454.47 K | 489.65 ± 9.7
454.61 K | 489.65 ± 9.7
454.74 K | 489.93 ± 9.7
454.88 K | 489.93 ± 9.7
455.02 K | 489.93 ± 9.7
455.15 K | 489.93 ± 9.7
455.29 K | 489.93 ± 9.7
455.59 K | 490.5 ± 9.9
455.72 K | 490.5 ± 9.9
455.86 K | 490.21 ± 9.9
456 K | 490.5 ± 9.9
456.13 K | 490.78 ± 9.9
456.28 K | 490.78 ± 9.9
456.42 K | 490.78 ± 9.9
456.56 K | 490.78 ± 9.9
456.69 K | 491.07 ± 9.9
457 K | 491.35 ± 9.9
457.13 K | 491.35 ± 9.9
457.27 K | 491.35 ± 9.9
457.41 K | 491.07 ± 9.9
457.54 K | 491.07 ± 9.9
457.68 K | 491.64 ± 9.9
457.82 K | 491.64 ± 9.9
457.95 K | 491.64 ± 9.9
458.09 K | 491.64 ± 9.9
458.23 K | 492.2 ± 9.9
458.37 K | 492.49 ± 9.9
458.66 K | 492.49 ± 9.9
458.8 K | 492.2 ± 9.9
458.93 K | 491.92 ± 9.9
459.07 K | 491.92 ± 9.9
459.21 K | 491.92 ± 9.9
459.35 K | 492.2 ± 9.9
459.48 K | 492.49 ± 9.9
459.62 K | 492.77 ± 9.9
459.76 K | 493.34 ± 9.9
460.06 K | 492.49 ± 9.9
460.19 K | 492.77 ± 9.9
460.33 K | 494.19 ± 9.9
460.47 K | 495.05 ± 9.9
460.6 K | 494.76 ± 9.9
460.74 K | 494.48 ± 9.9
460.88 K | 493.62 ± 9.9
461.01 K | 493.06 ± 9.9
461.15 K | 492.77 ± 9.9
461.28 K | 492.77 ± 9.9
461.42 K | 493.06 ± 9.9
461.72 K | 493.34 ± 9.9
461.85 K | 493.06 ± 9.9
461.99 K | 492.77 ± 9.9
462.12 K | 493.06 ± 9.9
462.26 K | 493.06 ± 9.9
462.4 K | 492.77 ± 9.9
462.53 K | 493.34 ± 9.9
462.67 K | 493.06 ± 9.9
462.82 K | 493.06 ± 9.9
463.12 K | 493.34 ± 9.9
463.26 K | 493.06 ± 9.9
463.39 K | 493.62 ± 9.9
463.53 K | 493.34 ± 9.9
463.67 K | 493.34 ± 9.9
463.81 K | 493.62 ± 9.9
463.94 K | 493.62 ± 9.9
464.08 K | 493.62 ± 9.9
464.22 K | 493.62 ± 9.9
464.35 K | 494.48 ± 9.9
464.49 K | 495.33 ± 9.9
464.79 K | 497.32 ± 9.9
464.92 K | 496.18 ± 9.9
465.06 K | 495.33 ± 9.9
465.2 K | 494.76 ± 9.9
465.34 K | 494.48 ± 9.9
465.47 K | 495.05 ± 9.9
465.61 K | 495.9 ± 9.9
465.75 K | 495.9 ± 9.9
465.89 K | 496.47 ± 9.9
466.19 K | 494.76 ± 9.9
